Measurements published in patent publication EP2975030B1, “DIHYDROPYRIDAZINE-3,5-DIONE DERIVATIVE” (Chugai Seiyaku Kabushiki Kaisha, priority 2013, dated 2014).

test system: rat small-intestinal brush border membrane vesicles; assay: Inhibitory effect on 33PO4 uptake into rat small-intestinal brush border membrane vesicles (rapid filtration method); assay type: biochemical, Wistar female rat; conditions: 1 µM test compound; 33PO4 uptake into rat small-intestinal BBMVs, 60 seconds
Method in brief: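 Uptake was terminated by ice-cold 110 mM NaCl, 1 mM KH2PO4, 10 mM HEPES (pH 7.5) buffer and immediate suction filtration, then washing. Using rat small-intestinal BBMVs, retained 33PO4 was quantified by liquid scintillation counting as transport activity.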

Compound	Rate of uptake inhibition (%) (1 µM)
CN1N(Cc2ccc(OCCN3CCOCC3)c(F)c2F)C(=O)C(C(=O)Nc2ccc(C(F)(F)F)cc2-c2ccc(C(F)(F)F)nc2)=C(O)C1(C)C [Example 314, 2-[[2,3-Difluoro-4-(2-morpholin-4-ylethoxy)phenyl]methyl]-5-hydroxy-1,6,6-trimethyl-3-oxo-N-[4-(trifluoromethyl)-2-[6-(trifluoromethyl)pyridin-3-yl]phenyl]pyridazine-4-carboxamide]	72
CN1N(Cc2ccc(OCCCCOCCO)c(F)c2F)C(=O)C(C(=O)Nc2ccc(C(F)(F)F)cc2-c2cc(C(F)(F)F)ncn2)=C(O)C12CCCC2 [Example 396]	38
CSC1CN(CCOc2ccc(CN3C(=O)C(C(=O)Nc4ccc(C(F)(F)F)cc4-c4cc(C(F)(F)F)ncn4)=C(O)C4(CCC4)N3C)c(F)c2F)C1 [Example 357]	45
CN1N(Cc2ccc(OCCN3CCN(CCCO)CC3)c(F)c2F)C(=O)C(C(=O)Nc2ccc(C(F)(F)F)cc2-c2cc(C(F)(F)F)ncn2)=C(O)C12CCC2 [Example 362]	17
COc1cc(-c2cc(C(F)(F)F)ccc2NC(=O)C2=C(O)[C@@]3(C)CCCN3N(Cc3cccc(F)c3F)C2=O)cnc1C#N [Example 114, (4aR)-N-[2-(6-Cyano-5-methoxypyridin-3-yl)-4-(trifluoromethyl)phenyl]-1-[(2,3-difluorophenyl)methyl]-4-hydroxy-4a-methyl-2-oxo-6,7-dihydro-5H-pyrrolo[1,2-b]pyridazine-3-carboxamide]	86
(4aS,5S,8R)-1-(3-Fluorobenzyl)-4-hydroxy-N-(5-methyl-2-(trifluoromethyl)furan-3-yl)-2-oxo-2,4a,5,6,7,8-hexahydro-1H-5,8-methanopyrido[1,2-b]pyridazine-3-carboxamide [Example 20]	21
C[C@]12CCCN1N(Cc1cccc(F)c1F)C(=O)C(C(=O)Nc1ccc(C(F)(F)F)cc1-c1cc(C(F)(F)F)ncn1)=C2O [Example 21, (4aR)-1-[(2,3-Difluorophenyl)methyl]-4-hydroxy-4a-methyl-2-oxo-N-[4-(trifluoromethyl)-2-[6-(trifluoromethyl)pyrimidin-4-yl]phenyl]-6,7-dihydro-5H-pyrrolo[1,2-b]pyridazine-3-carboxamide]	61
CC(C)[C@H]1C(O)=C(C(=O)Nc2ccc(C(F)(F)F)cc2-c2cc(C(F)(F)F)ncn2)C(=O)N(Cc2cccc(F)c2F)N1C [Example 252]	53
CN1N(Cc2ccc(OCCCOC[C@H](O)CO)c(F)c2F)C(=O)C(C(=O)Nc2ccc(C(F)(F)F)cc2-c2cc(C(F)(F)F)ncn2)=C(O)C12CCC2 [Example 389]	29
C[C@]12CCCN1N(Cc1cc(F)c(F)cc1F)C(=O)C(C(=O)Nc1cc(F)c(Br)c(F)c1)=C2O [Example 194]	80
C[C@]12CCCN1N(Cc1cccc(F)c1F)C(=O)C(C(=O)Nc1ccc(C(F)(F)F)cc1-c1cncc(C#N)c1)=C2O [Example 82]	100
COCCN(C)CCN(c1ccc(CN2C(=O)C(C(=O)Nc3ccc(C(F)(F)F)cc3-c3cc(C(F)(F)F)ncn3)=C(O)C3(CCCC3)N2C)c(F)c1F)C(C)C [Example 445]	29
CC(CN1CCOCC1)Oc1ccc(CN2C(=O)C(C(=O)Nc3ccc(C(F)(F)F)cc3-c3cc(C(F)(F)F)ncn3)=C(O)C3(CCC3)N2C)c(F)c1F (centres unmarked) [Example 408]	47
C[C@]12CCCN1N(Cc1cccc(F)c1F)C(=O)C(C(=O)Nc1cc(F)c(Br)c(F)c1)=C2O [Example 29]	75
COc1cccc(-c2cc(C(F)(F)F)ccc2NC(=O)C2=C(O)[C@@]3(C)CCCN3N(Cc3ccc(CCCOCCOCCOCCO)c(F)c3F)C2=O)c1OC [Example 142]	76
CN(CCOc1ccc(CN2C(=O)C(C(=O)Nc3ccc(C(F)(F)F)cc3-c3cc(C(F)(F)F)ncn3)=C(O)C3(CCCC3)N2C)c(F)c1F)C1CCOC1 (centres unmarked) [Example 366]	38
C[C@]12CCCN1N(Cc1ccc(F)cc1)C(=O)C(C(=O)Nc1ccc(C(F)(F)F)cc1-c1cc(C(F)(F)F)ncn1)=C2O [Example 208]	90
C[C@]12CCCN1N(Cc1ccc(F)cc1F)C(=O)C(C(=O)Nc1cc(F)c(Br)c(F)c1)=C2O [Example 192]	88
COCC(C)(C)N(C)CCOc1ccc(CN2C(=O)C(C(=O)Nc3ccc(C(F)(F)F)cc3-c3cc(C(F)(F)F)ncn3)=C(O)C3(CCCC3)N2C)c(F)c1F [Example 372]	38

Compound	Rate of uptake inhibition (%) (1 µM)
COCC(C)(C)N(C)CCOc1ccc(CN2C(=O)C(C(=O)Nc3ccc(C(F)(F)F)cc3-c3cc(C(F)(F)F)ncn3)=C(O)C3(CCC3)N2C)c(F)c1F [Example 349]	55
CN1N(Cc2cccc(F)c2F)C(=O)C(C(=O)Nc2ccc(C(F)(F)F)cc2-c2cncc(C(F)(F)F)c2)=C(O)C1(C)C [Example 305]	66
C[C@H]1COC[C@H](C)N1CCOc1ccc(CN2C(=O)C(C(=O)Nc3ccc(C(F)(F)F)cc3-c3cc(C(F)(F)F)ncn3)=C(O)C3(CCC3)N2C)c(F)c1F [Example 343]	68
COCCN(C)CCOCCOCCOCCOc1ccc(CN2C(=O)C(C(=O)Nc3ccc(C(F)(F)F)cc3-c3cc(C(F)(F)F)ncn3)=C(O)C3(CCCC3)N2C)c(F)c1F [Example 431]	26
CC(C)[C@@H]1C(O)=C(C(=O)Nc2ccc(Cl)cc2-c2ccc(C(F)(F)F)nc2)C(=O)N(Cc2cccc(F)c2F)N1C [Example 251]	43
CN1N(Cc2ccc(OCCN3CCOCC3(C)C)c(F)c2F)C(=O)C(C(=O)Nc2ccc(C(F)(F)F)cc2-c2cc(C(F)(F)F)ncn2)=C(O)C12CCC2 [Example 341]	64
CN1N(Cc2cccc(F)c2F)C(=O)C(C(=O)Nc2ccc(Br)c(C(F)(F)F)n2)=C(O)C12CCC2 [Example 258]	87
CN1N(Cc2ccc(OCCOCCOCCOCCC(=O)NCC(O)CO)c(F)c2F)C(=O)C(C(=O)Nc2ccc(C(F)(F)F)cc2-c2cc(C(F)(F)F)ncn2)=C(O)C12CCCC2 (centres unmarked) [Example 424]	17
CN1N(Cc2cccc(F)c2F)C(=O)C(C(=O)Nc2ccc(Cl)cc2-c2ccc(C(F)(F)F)nc2)=C(O)C1(C)C [Example 309]	68
COC(=O)CN(C)c1ncc(-c2cc(C(F)(F)F)ccc2NC(=O)C2=C(O)[C@@]3(C)CCCN3N(Cc3cccc(F)c3F)C2=O)cc1C#N [Example 112]	43
CN1[C@@H](C(C)(C)C)C(O)=C(C(=O)Nc2cnc(C(F)(F)F)nc2-c2ccc(C(F)(F)F)nc2)C(=O)N1Cc1ccc(OCCN2CCOCC2)c(F)c1F [Example 273]	41
(4aR)-1-[(3-Fluorophenyl)methyl]-4-hydroxy-4a-methyl-N-[5-methyl-2-(trifluoromethyl)furan-3-yl]-2-oxo-6,7-dihydro-5H-pyrrolo[1,2-b]pyridazine-3-carboxamide [Example 6]	48
CN1N(Cc2ccc(OCCCCOCCCO)c(F)c2F)C(=O)C(C(=O)Nc2ccc(C(F)(F)F)cc2-c2cc(C(F)(F)F)ncn2)=C(O)C12CCCC2 [Example 399]	42
CN1[C@@H](C(C)(C)C)C(O)=C(C(=O)Nc2ccc(C(F)(F)F)cc2-c2ccc(C(F)(F)F)nc2)C(=O)N1Cc1ccc(OCCN2CCOCC2)c(F)c1F [Example 266]	62
CN(C[C@H](O)[C@@H](O)[C@H](O)[C@H](O)CO)C(=O)CCOCCOCCOCCOc1ccc(CN2C(=O)C(C(=O)Nc3ccc(C(F)(F)F)cc3-c3cc(C(F)(F)F)ncn3)=C(O)C3(CCCC3)N2C)c(F)c1F [Example 423]	5
C[C@]12CCCN1N(Cc1ccccc1Cl)C(=O)C(C(=O)Nc1ccc(C(F)(F)F)cc1-c1cc(C(F)(F)F)ncn1)=C2O [Example 180]	75
CCC12CCCCN1N(Cc1cccc(F)c1F)C(=O)C(C(=O)Nc1cc(C)oc1C(F)(F)F)=C2O (centres unmarked) [Example 19, 1-[2,3-(Difluorophenyl)methyl]-4a-ethyl-4-hydroxy-N-[5-methyl-2-(trifluoromethyl)furan-3-yl]-2-oxo-5,6,7,8-tetrahydropyrido[1,2-b]pyridazine-3-carboxamide]	41
CCC1(CC)C(O)=C(C(=O)Nc2ccc(C(F)(F)F)cc2-c2ccc(C(F)(F)F)nc2)C(=O)N(Cc2ccc(OCCN3CCOCC3)c(F)c2F)N1C [Example 293]	47

same assay, conditions: 1 µM test compound; 33PO4 uptake into rat small-intestinal BBMVs, 60 seconds; 1 µM

Compound	Rate of uptake inhibition (%) (1 µM)
CN1N(Cc2ccc(OCCNCCS(=O)(=O)O)c(F)c2F)C(=O)C(C(=O)Nc2ccc(C(F)(F)F)cc2-c2cc(C(F)(F)F)ncn2)=C(O)C12CCCC2 [Example 435, 2-[2-[2,3-Difluoro-4-[[10-hydroxy-6-methyl-8-oxo-9-[[4-(trifluoromethyl)-2-[6-(trifluoromethyl)pyrimidin-4-yl]phenyl]carbamoyl]-6,7-diazaspiro[4.5]dec-9-en-7-yl]methyl]phenoxylethy]amino]ethanesulfonic acid]	11
